Data reported in patent US10562910B2, “Nitrogen-containing tricyclic compounds and uses thereof in medicine” (SUNSHINE LAKE PHARMA CO., LTD., priority 2016, dated 2020).
pEC50: −log10 of the molar value.

Tests used:
[1] = molecular target: FXR ligand binding domain (LBD) (Homo sapiens (Human), UniProt Q96RI1); experiment: Mammalian one hybrid (M1H) GAL4 reporter gene assay in HEK293 cells; assay type: cell-based; conditions: GAL4 reporter gene test
Text: Mammalian one hybrid technology is also called chimeric receptor gene assay. Based on the GAL4 chimera receptor assay, the activity of compounds which mediated activation of FXR was detected by dual luciferase reporter assay. The methods were as follows: cDNA encoding the FXR ligand binding domain (LBD), the yeast GAL4 DNA binding domain (DBD) and the Renilla luciferase DNA were fused to construct a chimera expression plasmid pBIND-FXR (Promega). […] The plasmid pG5Luc (Promega) was used as the reporter plasmid, containing the GAL4 upstream activation sequence (UAS) and the Firefly luciferase receptor gene. All GAL4 reporter gene assays were done in HEK293 cells. Cells were cultured at 37° C., 5% CO2 under humidified conditions. […] The contents were mixed completely and incubated the mixtures for 15 minutes at room temperature. The volume of the transfection mixture was 2.5 μl/well. Trypsinized and diluted the cell slurry at a density of […] (100 μl/well for 96-well plate). Then added required volume of transfection mixture prepared previously into the cell slurry, and dispensed 100 μl/well of the cell slurry into the 96-well plate and incubated the plate for 24 hours at 37° C., 5% CO2 under humidified conditions. Compounds prediluted in complete medium were added into each well and then incubated at 37° C., 5% CO2 under humidified conditions for 18 hours. The firefly and renilla luciferase signal was assayed by Promega's Dual Luciferase Reporter Assay System.
The % Activation value was calculated by the following equation: Activation %=[(X−Min)/(Max−Min)]×100%. “X” is the “F/R” value from compounds. “F/R” means “Firefly/Renilla”. “Min” is the mean “F/R” value from no compound control. “Max” is the mean “F/R” value from reference compound control. Finally, the EC50 value of each compounds were calculated by GraphPrism 5.0.

FXR-LBD = FXR-LBD (Homo sapiens (Human), UniProt Q96RI1); experiment: TR-FRET Farnesoid X Receptor Coactivator Assay; assay type: biochemical; conditions: TR-FRET farnesoid X receptor protein coactivator activity
Chain of FXR-LBD (Q96RI1 262-486): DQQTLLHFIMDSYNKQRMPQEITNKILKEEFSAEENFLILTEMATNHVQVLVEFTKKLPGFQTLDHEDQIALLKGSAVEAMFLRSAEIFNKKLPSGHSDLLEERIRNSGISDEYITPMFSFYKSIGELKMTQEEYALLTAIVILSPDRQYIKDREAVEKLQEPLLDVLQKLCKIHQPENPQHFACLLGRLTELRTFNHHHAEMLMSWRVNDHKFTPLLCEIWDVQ
Protocol: Purchasing invitrogen PV4833 kits. The procedure refers to LanthaScreen™ TR-FRET Farnesoid X Receptor Coactivator Assay
First, the required amount of the compound was weighed and dissolved in 100% DMSO at the maximum concentration of 3000 μM. The solution at the maximum concentration was diluted by 3-fold serial dilution in DMSO to get 10 concentrations;
Second, the above prepared solutions of different concentrations were diluted to 50-fold with a buffer supplied with the kit, to 2× compound solution, followed by mixing and then 10 μL of the diluted solution was added to a 384 well plate;
Third, FXR-LBD was diluted with a buffer to 4× solution, and 5 μL of the diluent was added to the 384 well plate of second step;
Fourth, Fluorescein-SRC2-2 and Tb anti-GST antibody were diluted to 4× Fluorescein-SRC2-2 and Tb anti-GST antibody solution. Then two reagents were mixed together, and 5 μL of the mixture was added to the 384 well plate of third step;
Finally, the solution of the 384 well above was mixed uniformly by centrifuging, and then incubated at room temperature for 1 h. Then the TR-FRET Endpoint method was used for measuring the solution at wavelengths of 520 nm, 495 nm and 337 nm.

Chain of FXR ligand binding domain (LBD) (Q96RI1 261-481): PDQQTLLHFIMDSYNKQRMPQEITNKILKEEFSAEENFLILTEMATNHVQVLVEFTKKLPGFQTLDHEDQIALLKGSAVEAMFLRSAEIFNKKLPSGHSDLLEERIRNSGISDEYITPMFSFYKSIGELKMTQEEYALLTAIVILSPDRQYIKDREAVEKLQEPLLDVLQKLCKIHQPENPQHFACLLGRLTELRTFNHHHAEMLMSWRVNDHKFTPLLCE

O=C(O)c1cc2c(cc1O)CCc1nc(OCc3c(-c4c(Cl)cccc4Cl)noc3C3CC3)ccc1O2 [Example 11, 2-((5-cyclopropyl-3-(2,6-dichlorophenyl)isoxazol-4-yl)methoxy)-8-hydroxy-10,11-dihydrobenzo[6,7]oxepino[3,2-b]pyridine-7-carboxylic acid]
pEC50 [1]: 6.98 | pEC50 (FXR-LBD): 7.77
